From patent publication US20060069132A1, “Azolecarboxamide herbicides” (priority 2004, published 2006)

What was measured:
Assay in all cases: Test E pre-/postemergence herbicide test
common groundsel = type: in vivo, Senecio vulgaris
Procedure, shortened: (§1)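 Test chemicals in a non-phytotoxic solvent mixture with surfactant applied preemergence to planted seeds and postemergence to plants 2 to 18 cm tall (1- to 4-leaf stage). After 12 to 14 days in the greenhouse, injury rated visually against untreated controls on a 0–100 scale (0 no effect, 100 complete control).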

common sowthistle = type: in vivo, Sonchus oleraceous
Procedure, shortened: as §1

dallisgrass = type: in vivo, Paspalum dilatatum
Procedure, shortened: as §1

common purslane = type: in vivo, Portulaca oleracea
Procedure, shortened: as §1

common ragweed = type: in vivo, Ambrosia elatior
Procedure, shortened: as §1

itchgrass = type: in vivo, Rottboellia cochinchinensis
Procedure, shortened: as §1

large crabgrass = type: in vivo, Digitaria sanguinalis
Procedure, shortened: as §1

annual bluegrass = type: in vivo, Poa annua
Procedure, shortened: as §1

quackgrass = type: in vivo, Elytrigia repens
Procedure, shortened: as §1

field bindweed = type: in vivo, Convolvulus arvensis
Procedure, shortened: as §1

prickly sida = type: in vivo, Sida spinosa
Procedure, shortened: as §1

bipinnate beggarticks = type: in vivo, Bidens bipinnata; details: scale 0 to 100
Procedure, shortened: as §1

[1] = Postemergence, 500 g ai/ha, scale 0 to 100
[2] = Postemergence, 250 g ai/ha, scale 0 to 100
[3] = Preemergence, 62 g ai/ha, scale 0 to 100
[4] = Preemergence, 125 g ai/ha, scale 0 to 100
[5] = Preemergence, 250 g ai/ha, scale 0 (no effect) to 100 (complete control)
[6] = Preemergence, 500 g ai/ha, scale 0 (no effect) to 100 (complete control)
[7] = postemergence, 125 g ai/ha, scale 0 to 100
[8] = postemergence, 62 g ai/ha, scale 0 to 100
[9] = Preemergence, 375 g ai/ha, scale 0 (no effect) to 100 (complete control)

## CCn1nc(C(C)(C)C)cc1C(=O)Nc1cccc(C(N)=O)n1 [Compound 162, 6-[[[3-(1,1-dimethylethyl)-1-ethyl-1H-pyrazol-5-yl]carbonyl]amino]-2-pyridinecarboxamide]
Common groundsel; [1]
  Plant response rating, Groundsel: 100
Common groundsel; [2]
  Plant response rating, Groundsel: 80
Common groundsel; [3]
  Plant response rating, Groundsel: 10
Common groundsel; [4]
  Plant response rating, Groundsel: 40
Common groundsel; [5]
  Plant response rating, Groundsel: 80
Common groundsel; [6]
  Plant response rating, Groundsel: 100
Common groundsel; [7]
  Plant response rating, Groundsel: 30
Common groundsel; [8]
  Plant response rating, Groundsel: 20
Common sowthistle; [1]
  Plant response rating, Sowthistle: 100
Common sowthistle; [2]
  Plant response rating, Sowthistle: 75
Common sowthistle; [3]
  Plant response rating, Sowthistle: 40
Common sowthistle; [4]
  Plant response rating, Sowthistle: 60
Common sowthistle; [5]
  Plant response rating, Sowthistle: 80
Common sowthistle; [6]
  Plant response rating, Sowthistle: 95
Common sowthistle; [7]
  Plant response rating, Sowthistle: 75
Common sowthistle; [8]
  Plant response rating, Sowthistle: 75
dallisgrass; [1]
  Plant response rating, Dallisgrass: 85
dallisgrass; [2]
  Plant response rating, Dallisgrass: 70
dallisgrass; [3]
  Plant response rating, Dallisgrass: 70
dallisgrass; [4]
  Plant response rating, Dallisgrass: 95
dallisgrass; [5]
  Plant response rating, Dallisgrass: 95
dallisgrass; [6]
  Plant response rating, Dallisgrass: 95
dallisgrass; [7]
  Plant response rating, Dallisgrass: 40
dallisgrass; [8]
  Plant response rating, Dallisgrass: 20
Common purslane; [3]
  Plant response rating, Purslane: 100
Common purslane; [4]
  Plant response rating, Purslane: 100
Common purslane; [5]
  Plant response rating, Purslane: 100
Common purslane; [6]
  Plant response rating, Purslane: 100
Common ragweed; [1]
  Plant response rating, Ragweed: 90
Common ragweed; [2]
  Plant response rating, Ragweed: 80
Common ragweed; [3]
  Plant response rating, Ragweed: 20
Common ragweed; [4]
  Plant response rating, Ragweed: 60
Common ragweed; [5]
  Plant response rating, Ragweed: 75
Common ragweed; [6]
  Plant response rating, Ragweed: 95
Common ragweed; [7]
  Plant response rating, Ragweed: 75
Common ragweed; [8]
  Plant response rating, Ragweed: 50
itchgrass; [1]
  Plant response rating, Itchgrass: 95
itchgrass; [2]
  Plant response rating, Itchgrass: 95
itchgrass; [3]
  Plant response rating, Itchgrass: 40
itchgrass; [4]
  Plant response rating, Itchgrass: 95
itchgrass; [5]
  Plant response rating, Itchgrass: 95
itchgrass; [6]
  Plant response rating, Itchgrass: 100
itchgrass; [7]
  Plant response rating, Itchgrass: 85
itchgrass; [8]
  Plant response rating, Itchgrass: 75
Large crabgrass; [1]
  Plant response rating, Crabgrass, Large: 95
Large crabgrass; [2]
  Plant response rating, Crabgrass, Large: 90
Large crabgrass; [3]
  Plant response rating, Crabgrass, Large: 50
Large crabgrass; [4]
  Plant response rating, Crabgrass, Large: 90
Large crabgrass; [5]
  Plant response rating, Crabgrass, Large: 95
Large crabgrass; [6]
  Plant response rating, Crabgrass, Large: 100
Large crabgrass; [7]
  Plant response rating, Crabgrass, Large: 50
Large crabgrass; [8]
  Plant response rating, Crabgrass, Large: 30
Annual bluegrass; [1]
  Plant response rating, Bluegrass: 98
Annual bluegrass; [2]
  Plant response rating, Bluegrass: 98
Annual bluegrass; [3]
  Plant response rating, Bluegrass: 100
Annual bluegrass; [4]
  Plant response rating, Bluegrass: 100
Annual bluegrass; [5]
  Plant response rating, Bluegrass: 100
Annual bluegrass; [6]
  Plant response rating, Bluegrass: 100
Annual bluegrass; [7]
  Plant response rating, Bluegrass: 95
Annual bluegrass; [8]
  Plant response rating, Bluegrass: 90
quackgrass; [1]
  Plant response rating, Quackgrass: 95
quackgrass; [2]
  Plant response rating, Quackgrass: 90
quackgrass; [3]
  Plant response rating, Quackgrass: 20
quackgrass; [4]
  Plant response rating, Quackgrass: 60
quackgrass; [5]
  Plant response rating, Quackgrass: 75
quackgrass; [6]
  Plant response rating, Quackgrass: 90
quackgrass; [7]
  Plant response rating, Quackgrass: 70
quackgrass; [8]
  Plant response rating, Quackgrass: 50
Field bindweed; [1]
  Plant response rating, Bindweed, Field: 98
Field bindweed; [2]
  Plant response rating, Bindweed, Field: 95
Field bindweed; [3]
  Plant response rating, Bindweed, Field: 30
Field bindweed; [4]
  Plant response rating, Bindweed, Field: 80
Field bindweed; [5]
  Plant response rating, Bindweed, Field: 100
Field bindweed; [6]
  Plant response rating, Bindweed, Field: 100
Field bindweed; [7]
  Plant response rating, Bindweed, Field: 80
Field bindweed; [8]
  Plant response rating, Bindweed, Field: 50

## CCn1nc(C(C)(C)C)cc1C(=O)Nc1cc(C(=S)N(C)C)ccc1F [Compound 294]
Common groundsel; [2]
  Plant response rating, Groundsel: 90
Common groundsel; [8]
  Plant response rating, Groundsel: 50
Prickly sida; [1]
  Plant response rating, Prickly Sida: 100
Prickly sida; [2]
  Plant response rating, Prickly Sida: 80
Prickly sida; [4]
  Plant response rating, Prickly Sida: 100
Prickly sida; [5]
  Plant response rating, Prickly Sida: 100
Prickly sida; [9]
  Plant response rating, Prickly Sida: 100
Prickly sida; [6]
  Plant response rating, Prickly Sida: 100
Prickly sida; [7]
  Plant response rating, Prickly Sida: 70
Prickly sida; [8]
  Plant response rating, Prickly Sida: 50
Common sowthistle; [1]
  Plant response rating, Sowthistle: 80
Common sowthistle; [4]
  Plant response rating, Sowthistle: 80
Common sowthistle; [5]
  Plant response rating, Sowthistle: 95
Common sowthistle; [9]
  Plant response rating, Sowthistle: 100
Common sowthistle; [6]
  Plant response rating, Sowthistle: 100
Common sowthistle; [7]
  Plant response rating, Sowthistle: 60
Common sowthistle; [8]
  Plant response rating, Sowthistle: 60
dallisgrass; [1]
  Plant response rating, Dallisgrass: 70
dallisgrass; [2]
  Plant response rating, Dallisgrass: 60
dallisgrass; [4]
  Plant response rating, Dallisgrass: 75
dallisgrass; [5]
  Plant response rating, Dallisgrass: 80
dallisgrass; [9]
  Plant response rating, Dallisgrass: 95
dallisgrass; [6]
  Plant response rating, Dallisgrass: 95
dallisgrass; [7]
  Plant response rating, Dallisgrass: 40
dallisgrass; [8]
  Plant response rating, Dallisgrass: 10
Common purslane; [1]
  Plant response rating, Purslane: 90
Common purslane; [2]
  Plant response rating, Purslane: 90
Common purslane; [7]
  Plant response rating, Purslane: 60
Common purslane; [8]
  Plant response rating, Purslane: 10
Common ragweed; [1]
  Plant response rating, Ragweed: 80
Common ragweed; [2]
  Plant response rating, Ragweed: 70
Common ragweed; [4]
  Plant response rating, Ragweed: 75
Common ragweed; [5]
  Plant response rating, Ragweed: 85
Common ragweed; [9]
  Plant response rating, Ragweed: 100
Common ragweed; [6]
  Plant response rating, Ragweed: 100
Common ragweed; [7]
  Plant response rating, Ragweed: 60
Common ragweed; [8]
  Plant response rating, Ragweed: 30
Bipinnate beggarticks; Postemergence, 500 g ai/ha
  Plant response rating, Beggarticks, Bip.: 75
Bipinnate beggarticks; Postemergence, 250 g ai/ha
  Plant response rating, Beggarticks, Bip.: 70
Bipinnate beggarticks; postemergence, 125 g ai/ha
  Plant response rating, Beggarticks, Bip.: 60
Bipinnate beggarticks; postemergence, 62 g ai/ha
  Plant response rating, Beggarticks, Bip.: 40
itchgrass; [1]
  Plant response rating, Itchgrass: 80
itchgrass; [2]
  Plant response rating, Itchgrass: 75
itchgrass; [5]
  Plant response rating, Itchgrass: 75
itchgrass; [9]
  Plant response rating, Itchgrass: 95
itchgrass; [6]
  Plant response rating, Itchgrass: 100
itchgrass; [7]
  Plant response rating, Itchgrass: 70
itchgrass; [8]
  Plant response rating, Itchgrass: 50
Large crabgrass; [1]
  Plant response rating, Crabgrass, Large: 80
Large crabgrass; [2]
  Plant response rating, Crabgrass, Large: 75
Large crabgrass; [4]
  Plant response rating, Crabgrass, Large: 75
Large crabgrass; [5]
  Plant response rating, Crabgrass, Large: 95
Large crabgrass; [9]
  Plant response rating, Crabgrass, Large: 100
Large crabgrass; [6]
  Plant response rating, Crabgrass, Large: 100
Large crabgrass; [7]
  Plant response rating, Crabgrass, Large: 70
Large crabgrass; [8]
  Plant response rating, Crabgrass, Large: 40
Annual bluegrass; [1]
  Plant response rating, Bluegrass: 95
Annual bluegrass; [2]
  Plant response rating, Bluegrass: 95
Annual bluegrass; [4]
  Plant response rating, Bluegrass: 95
Annual bluegrass; [5]
  Plant response rating, Bluegrass: 95
Annual bluegrass; [9]
  Plant response rating, Bluegrass: 95
Annual bluegrass; [6]
  Plant response rating, Bluegrass: 100
Annual bluegrass; [7]
  Plant response rating, Bluegrass: 95
Annual bluegrass; [8]
  Plant response rating, Bluegrass: 95
quackgrass; [1]
  Plant response rating, Quackgrass: 85
quackgrass; [2]
  Plant response rating, Quackgrass: 85
quackgrass; [4]
  Plant response rating, Quackgrass: 80
quackgrass; [5]
  Plant response rating, Quackgrass: 80
quackgrass; [9]
  Plant response rating, Quackgrass: 95
quackgrass; [6]
  Plant response rating, Quackgrass: 95
quackgrass; [7]
  Plant response rating, Quackgrass: 80
quackgrass; [8]
  Plant response rating, Quackgrass: 60
Field bindweed; [1]
  Plant response rating, Bindweed, Field: 70
Field bindweed; [2]
  Plant response rating, Bindweed, Field: 50
Field bindweed; [4]
  Plant response rating, Bindweed, Field: 10
Field bindweed; [5]
  Plant response rating, Bindweed, Field: 90
Field bindweed; [9]
  Plant response rating, Bindweed, Field: 95
Field bindweed; [6]
  Plant response rating, Bindweed, Field: 100
Field bindweed; [7]
  Plant response rating, Bindweed, Field: 50
Field bindweed; [8]
  Plant response rating, Bindweed, Field: 10
